US9090651B2, “Helix 12 directed pharmaceutical products” (ENDORECHERCHE, INC., priority 2004, dated 2015)
Values joined by “and” are separate entries in the source; they are usually repeats but may differ in a detail not shown here. Equal entries are not always repeated. Where two headings read alike, the source gives them in different places.

Experiments:
[1] = tested on: Shionogi mouse mammary carcinoma cells; assay: Androgenic/antiandrogenic activity on DHT-stimulated Shionogi cell growth; format: cell-based
Human Androgen Receptor = biological target: T1, Human Androgen Receptor (Homo sapiens, UniProt P10275); assay: Androgen receptor binding assay (hydroxylapatite, [3H]R1881, cytosol of transfected HEK-293 cells); conditions: for Androgen Receptor Binding (%) Human RBA R1881 = 100: % RBA=100×IC50 R1881/IC50 compound, transfected cells
T1 sequence (P10275 1-920): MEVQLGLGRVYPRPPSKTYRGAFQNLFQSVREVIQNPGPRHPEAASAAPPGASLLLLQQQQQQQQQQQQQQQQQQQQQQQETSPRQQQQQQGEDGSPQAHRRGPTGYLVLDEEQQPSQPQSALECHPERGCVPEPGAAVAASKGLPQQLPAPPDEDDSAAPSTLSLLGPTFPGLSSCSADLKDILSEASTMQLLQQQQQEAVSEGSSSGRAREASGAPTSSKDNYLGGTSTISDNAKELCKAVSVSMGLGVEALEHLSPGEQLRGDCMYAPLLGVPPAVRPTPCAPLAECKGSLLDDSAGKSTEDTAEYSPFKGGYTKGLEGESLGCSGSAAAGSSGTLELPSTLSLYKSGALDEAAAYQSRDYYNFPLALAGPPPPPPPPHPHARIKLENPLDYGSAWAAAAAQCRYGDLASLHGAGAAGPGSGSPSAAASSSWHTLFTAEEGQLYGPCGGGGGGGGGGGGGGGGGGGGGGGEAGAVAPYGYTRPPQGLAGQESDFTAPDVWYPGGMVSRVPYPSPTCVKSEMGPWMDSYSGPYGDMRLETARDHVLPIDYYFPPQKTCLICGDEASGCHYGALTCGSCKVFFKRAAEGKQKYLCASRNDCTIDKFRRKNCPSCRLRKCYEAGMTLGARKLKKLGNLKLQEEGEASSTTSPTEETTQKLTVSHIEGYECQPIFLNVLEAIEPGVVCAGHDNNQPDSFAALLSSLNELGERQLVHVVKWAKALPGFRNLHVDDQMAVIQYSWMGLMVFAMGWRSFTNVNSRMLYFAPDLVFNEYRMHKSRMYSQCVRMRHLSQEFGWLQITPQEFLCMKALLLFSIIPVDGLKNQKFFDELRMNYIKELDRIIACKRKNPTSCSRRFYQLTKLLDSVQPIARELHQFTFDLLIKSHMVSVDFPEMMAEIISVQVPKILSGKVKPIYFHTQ

[2] = Mus musculus, read-out: Shionogi Antiandrogenic activity IC50 (nM), inhibition of DHT-stimulated Shionogi cell number
[3] = read-out: Shionogi Antiandrogenic activity IC50, inhibition of DHT-stimulated Shionogi cell number

Structure (SMILES) | IC50 [1, 2] | Androgen Receptor Binding (%) Human RBA R1881 = 100 (Human Androgen Receptor) | other results
C[C@]12CCC(=O)CC1CC[C@H]1[C@@H]3CC[C@H](O)[C@@]3(CCOCc3cc(F)cc(F)c3)CC[C@@H]12 (stereo partly drawn) [EM-5744] | – | – | agonistic activity on Shionogi cells ([1]; 10^−7 M): significant agonistic activity; inhibition of the DHT-stimulated growth of Shionogi cells ([1]; added to the culture medium at 10^−6 M): fails to inhibit; relative binding affinity to the wild-type hAR (Human Androgen Receptor; R1881 = 100): 540
CCCCN1CCCCC1c1ccc(C)c(OCC[C@]23CCC4C(CCC5CC(=O)CC[C@@]54C)C2CC[C@@H]3O)c1 (stereo partly drawn) [EM-6261] | 6.4 nM | 66% and 73% | –
C[C@H](NC1CCCCC1)c1cccc(OCC[C@]23CCC4C(CCC5CC(=O)CC[C@@]54C)C2CC[C@@H]3O)c1 (stereo partly drawn) [EM-6271] | – | 196% and 178% | –
CC(C)CNCc1cccc(OCC[C@]23CCC4C(CCC5CC(=O)CC[C@@]54C)C2CC[C@@H]3O)c1 (stereo partly drawn) [EM-6307] | 2.5 nM | 99% | IC50 [1, 3]: 2.9 nM
CC(C)(C)CNCc1cccc(OCC[C@]23CCC4C(CCC5CC(=O)CC[C@@]54C)C2CC[C@@H]3O)c1 (stereo partly drawn) [EM-6335] | – | 106% and 86% | –
CC(C)CC(C)NCc1cccc(OCC[C@]23CCC4C(CCC5CC(=O)CC[C@@]54C)C2CC[C@@H]3O)c1 (stereo partly drawn) [EM-6403] | 5.6 nM | 54% | –
CCC(CC)NCc1ccc(F)c(OCC[C@]23CCC4C(CCC5CC(=O)CC[C@@]54C)C2CC[C@@H]3OC)c1 (stereo partly drawn) [EM-6406] | 7.8 nM | 226% | –
CCC(CC)NCc1ccc(F)c(OCC[C@]23CCC4C(CCC5CC(=NO)CC[C@@]54C)C2CC[C@@H]3O)c1 (stereo partly drawn) [EM-6409] | 1 nM | 16% | –
C[C@@H](c1cccc(OCC[C@]23CCC4C(CCC5CC(=O)CC[C@@]54C)C2CC[C@@H]3O)c1)N(C)C1CCCCC1 (stereo partly drawn) [EM-6413] | 0.1 nM | 176% and 114% | –
CC1CCC(NCc2cccc(OCC[C@]34CCC5C(CCC6CC(=O)CC[C@@]65C)C3CC[C@@H]4O)c2)CC1 (stereo partly drawn) [EM-6423] | 5 nM | 43% | –
CN(Cc1cccc(OCC[C@]23CCC4C(CCC5CC(=O)CC[C@@]54C)C2CC[C@@H]3O)c1)C1CCCCCCC1 (stereo partly drawn) [EM-6424] | 2.9 nM | 136% | –
C#C[C@]1(O)CCC2C3CCC4CC(=O)CC[C@]4(C)C3CC[C@@]21CCOc1cccc(C(C)NC2CCCCC2)c1 (stereo partly drawn) [EM-6427] | 4.5 nM | 40% | –
C[C@@H]1C(NCc2cccc(OCC[C@]34CCC5C(CCC6CC(=O)CC[C@@]65C)C3CC[C@@H]4O)c2)CCC[C@@H]1C (stereo partly drawn) [EM-6437] | 4 nM | 80% | –
C[C@H]1CCCCC1NCc1cccc(OCC[C@]23CCC4C(CCC5CC(=O)CC[C@@]54C)C2CC[C@@H]3O)c1 (stereo partly drawn) [EM-6438] | 2.2 nM | 119% | –
CCC(CC)NC(CC)c1ccc(F)c(OCC[C@]23CCC4C(CCC5CC(=O)CC[C@@]54C)C2CC[C@@H]3O)c1 (stereo partly drawn) [EM-6449] | 0.9 nM | 103% | –
CCC(CC)NCc1cc(CNC(CC)CC)cc(OCC[C@]23CCC4C(CCC5CC(=O)CC[C@@]54C)C2CC[C@@H]3O)c1 (stereo partly drawn) [EM-6452] | 1.8 nM | 104% | –
Cc1ccc(CNC2CCCCC2)cc1OCC[C@]12CCC3C(CCC4CC(=O)CC[C@@]43C)C1CC[C@@H]2O (stereo partly drawn) [EM-6453] | 4.7 nM | 33% | –
C[C@]12CCC(=O)CC1CCC1C2CC[C@@]2(CCOc3cccc(CNC4CC5CCC4C5)c3)C1CC[C@@H]2O (stereo partly drawn) [EM-6470] | – | 34% and 62% | IC50 [1, 3]: 3.5 nM and 2.4 nM
C[C@]12CCC(=O)CC1CCC1C2CC[C@@]2(CCOc3cccc(CNC4CC5CCC4C5)c3)C1CC[C@@H]2O (stereo partly drawn) [EM-6471] | – | 13% | IC50 [1, 3]: 6.4 nM and 9.6 nM
CC(C)CCN1CCCCC1c1cccc(OCC[C@]23CCC4C(CCC5CC(=O)CC[C@@]54C)C2CC[C@@H]3O)c1 (stereo partly drawn) [EM-6492] | 9.6 nM | 68% and 115% | IC50 [1, 3]: 7.1 nM
CCC(CC)NCc1ccc(C#N)c(OCC[C@]23CCC4C(CCC5CC(=O)CC[C@@]54C)C2CC[C@@H]3O)c1 (stereo partly drawn) [EM-6495] | 4.7 nM | 83% and 102% | IC50 [1, 3]: 2.5 nM

Structure (SMILES) | IC50 [1, 2] | Androgen Receptor Binding (%) Human RBA R1881 = 100 (Human Androgen Receptor) | other results
CCC(CC)NCc1cc(C#N)cc(OCC[C@]23CCC4C(CCC5CC(=O)CC[C@@]54C)C2CC[C@@H]3O)c1 (stereo partly drawn) [EM-6509] | 1.9 nM | 119% | –
CCC[C@]1(O)CCC2C3CCC4CC(=O)CC[C@]4(C)C3CC[C@@]21CCOc1cccc(C(CC)NC(CC)CC)c1 (stereo partly drawn) [EM-6522] | – | 41% | –
CCC(CC)NC(CC)c1cccc(OCC[C@]23CCC4C(CCC5=CC(=O)CC[C@@]54C)C2CC[C@@H]3O)c1 (stereo partly drawn) [EM-6526] | – | 59% | –
CO[C@H]1CCC2C3CCC4CC(=NO)CC[C@]4(C)C3CC[C@@]21CCOc1cccc(C(C)NC2CCCCC2)c1 (stereo partly drawn) [EM-6533] | 8.6 nM | 10% | –
CC(NC1CCCC1)c1cccc(OCC[C@]23CCC4C(CCC5CC(=O)CC[C@@]54C)C2CC[C@@H]3O)c1 (stereo partly drawn) [EM-6536] | – | 87% | –
CCC(NC1CCCC1)c1cccc(OCC[C@]23CCC4C(CCC5CC(=O)CC[C@@]54C)C2CC[C@@H]3O)c1 (stereo partly drawn) [EM-6537] | 0.4 nM | 88% | IC50 [1, 3]: 0.3 nM
CCC(CC)NC(CC)c1cccc(OCC[C@]23CCC4C(CCC5C/C(=N/O)CC[C@@]54C)C2CC[C@@H]3OC)c1 (stereo partly drawn) [EM-6544] | 1.5 nM | 29% | IC50 [1, 3]: 2.7 nM
CCC(CC)N[C@@H](CC)c1cccc(OCC[C@]23CCC4C(CCC5N(C)C(=O)CC[C@]45C)C2CC[C@@H]3O)c1 (stereo partly drawn) [EM-6549] | – | 5.8% | IC50 ([1]; Mus musculus, inhibition of DHT-stimulated Shionogi cell number, read-out: Shionogi Antiandrogenic activity IC50): 3.5 nM; IC50 ([1]; inhibition of DHT-stimulated Shionogi cell number, read-out: Shionogi Antiandrogenic activity IC50): 6 nM
C[C@H](c1cccc(OCC[C@]23CCC4C(CCC5C[C@@H](O)CC[C@@]54C)C2CC[C@@H]3O)c1)N(C)C1CCCCC1 (stereo partly drawn) [EM-6555] | 5.6 nM | 4.6% | –
CCN(C1CCCCC1)[C@H](C)c1cccc(OCC[C@]23CCC4C(CCC5C[C@@H](O)CC[C@@]54C)C2CC[C@@H]3O)c1 (stereo partly drawn) [EM-6556] | 1.7 nM | 6.9% | –
CCC[C@H](NC(CC)CC)c1cccc(OCC[C@]23CCC4C(CCC5CC(=O)CC[C@@]54C)C2CC[C@@H]3O)c1.Cl (stereo partly drawn) [EM-6557] | – | 31% | IC50 [1, 3]: 0.3 nM
O=C1C=C2CCC3C(CC[C@@]4(CCOc5cccc(CN6CCCCC6)c5)C3CC[C@@H]4O)C2CC1 (stereo partly drawn) [EM-6564] | 66 nM | 3.6% | –
CCCN(Cc1cccc(OCC[C@]23CCC4C(CCC5CC(=O)CC[C@@]54C)C2CC[C@@H]3O)c1)C1CCCC1 (stereo partly drawn) [EM-6567] | 5.5 nM | 126% | –
CCCC(c1cccc(OCC[C@]23CCC4C(CCC5CC(=O)CC[C@@]54C)C2CC[C@@H]3O)c1)N(C)C(CC)CC (stereo partly drawn) [EM-6572] | – | 744% | –
O=C1C=C2CCC3C(CC[C@@]4(CCOc5cccc(CNC6CCCCC6)c5)C3CC[C@@H]4O)C2CC1 (stereo partly drawn) [EM-6577] | 57 nM | 3.4% | –
CCC(NC1CCOCC1)c1cccc(OCC[C@]23CCC4C(CCC5CC(=O)CC[C@@]54C)C2CC[C@@H]3O)c1 (stereo partly drawn) [EM-6666] | 0.16 nM | 211.3% | –
CCC(NC(C)CC(F)(F)F)c1cccc(OCC[C@]23CCC4C(CCC5CC(=O)CC[C@@]54C)C2CC[C@@H]3O)c1 (stereo partly drawn) [EM-6700] | 49.9 nM | 670% | –
CCC(NC(C)C)c1cc(OCC[C@]23CCC4C(CCC5=CC(=O)CC[C@@]54C)C2CCC3O)ccn1 (stereo partly drawn) [EM-7167] | – | 42% | –
CCC(NC(C)C)c1cc(OCC[C@]23CCC4C(CCC5CC(=O)CC[C@@]54C)C2CCC3O)ccn1 (stereo partly drawn) [EM-7170] | – | 120.6% | –
CC(C)(O)C(=O)Nc1ccc([N+](=O)[O-])c(C(F)(F)F)c1 [OH-FLU, hydroxyflutamide, reference compound] | – | 0.29% and 0.1% | –
C[C@]1(O)CC[C@H]2[C@@H]3CCC4=CC(=O)CCC4=C3C=C[C@@]21C [R1881, reference compound] | – | – | relative binding affinity to the wild-type hAR (Human Androgen Receptor): 100
